The values that follow come from patent US20030050233A1, “Peptide combination for the treatment of cancer” (DABUR ONCOLOGY PLC, priority 2001, published 2003).

Structures are written as SMILES. Where a SMILES comes first, the peptide text is derived from it. [ ]: non-standard residue; d: D form. The star is where a group is joined. Ac5c = NC1(C(=O)O)CCCC1; Aib = CC(C)(N)C(=O)O; Butyryl = CCCC(=O)*

Common to all, as to type: cell-based
For experiment [1], the system named is cAMP in breast cancer cells (MF7). Nature of the experiment: cAMP levels by enzyme linked sandwich immunosorbent assay. As to conditions: 30 minutes, final peptide concentration 10^-9 M, Forskolin 1 uM. Here is the method:
Enzyme linked sandwich immunosorbent assay was carried out on breast cancer cells (MF7) to study the modulation in levels of cAMP upon treatment with the peptides and their combinations. The cells were cultured in sterile 6 well plates at a density of 0.5×10^6/well in DMEM supplemented with 10% FCS, and allowed to adhere overnight. The medium was changed to DMEM and the cells were treated with appropriate concentrations of the peptide and its combinations, as shown in Table-IV, for 30 minutes, such that in each case the final peptide concentration was 10^−9M.
The cells were coincubated with Forskolin at a concentration of 1 uM. The cells were scraped using a cell scraper and pelleted. The cell pellet was suspended in appropriate resuspension buffer (50 mM Tris, containing EDTA, 0.2 mM phenyl methyl sulfonyl fluoride (PMSF), 1 ug/ml pepstatin and 0.5 ug/ml leupeptin adjusted to pH 7.4). The cell extracts were transferred to microcentrifuge tubes and centrifuged for 5 minutes at 10000×g. cAMP standards ranging in concentrations from 200 units/ml to 0 units/ml were prepared immediately prior to the start of the assay. Fluorescein isothiocyanate (FITC) conjugated monoclonal antibody directed to cAMP was added to microtitre wells precoated with primary monoclonal antibody against cAMP. 50 ul of sample lysates, and cAMP standards were added in duplicates in the microtitre wells containing both the monoclonals to cAMP. The wells were incubated at room temperature for 2 hours. The microtitre wells were washed thrice with appropriate wash buffer (PBS 50 mM, with Tween 0.5%) and the appropriate dilution of anti FITC horse radish peroxidase conjugate was added and incubated for 30 minutes. The microtitre wells were washed thrice with the wash buffer and subsequently with distilled water. Tetra-methylbenzidine was added to each well and incubated in dark for 30 minutes at room temperature. The absorbance was measured in each well at dual wavelength of 450/595 nm within 30 minutes of the addition of stop solution and the amount of cAMP present in the cell samples calculated.
In general terms: Changes in cAMP serve as a functional read-out for many G protein-coupled receptors.

Experiment [2] relates to Caspase-3 in PA-1 (Ovary) cells. Nature of the experiment: Caspase-3 induction, colorimetric DEVD-pNA, PA-1. As to conditions: 6 hours, each peptide 10^-8 M. As to the method:
PA-1 (Ovary) cells were cultured in 25 cm^2 tissue culture flasks at 37° C. in a humidified incubator containing 5% CO2. When cultures reached pre-confluence individual peptides of the combination and different combinations of the peptides as shown in Table VII were added to different flasks such that the final concentration of each peptide in the flask was 10^−8 M. The untreated flasks served as controls. The cells were incubated with drug for 6 hours.
After 6 hours of incubation cells were collected by trypsin treatment followed by centrifugation at 2000 r.p.m. for 10 minutes. The supernatant was gently removed and discarded and Lysis Buffer was added to the cell pellet (25 ul of lysis buffer per 1×10^4 cells I a 15 ml conical tube) and incubated on ice for 10 minutes and centrifuged at 10,000-×g for 1 minute. 50 ul of supernatant(cell lysate) was transferred to the wells of a 96-well plate. 2×Reaction buffer was prepared by adding 10 ul of fresh DTT stock per 1 ml of 2×Reaction Buffer. […] Following incubation the plate was read on a microplate reader at 405 nm-wavelength light the level of caspase enzymatic activity in the cell lysate was directly proportional to the color reaction. The induction of caspase activity by the subcombinations was calculated as a percentage of control using the formula [(Sample OD/Control OD)−1]*100.

Experiment [3] relates to VEGF secreted by human breast adenocarcinoma cells (MDA.MB.453). Nature of the experiment: VEGF secretion ELISA. As to conditions: 4 hours, each peptide 10^-8 M. Here is the method: Human breast adenocarcinoma cells (MDA.MB.453) were plated at the density of 8-10×10^5 cells per 2 ml in a six well plate. After an overnight incubation of cells at 37° C., individual peptides and different combinations of the peptides as shown in Table VIII were added to different wells such that the final concentration of each peptide was 10^−8 M. The untreated wells served as controls. The plates were incubated for 4 hours at 37° C. The medium was collected from all the wells (control and treated) and spun down at 2000 r.p.m to remove the cellular material. The supernatant was collected and used for ELISA (Quantikine human VEGF, R&D Systems). The assay employs the quantitative sandwich enzyme immunoassay technique. A monoclonal antibody specific for VEGF has been pre-coated onto a microplate. Standards and samples were pipeted into the wells and VEGF present was bound by the immobilized antibody. After washing away the unbound substances, an enzyme-linked polyclonal antibody specific for VEGF was added to the wells. Following a wash to remove any unbound antibody-enzyme reagent, a substrate solution was added to the wells and color developed in proportion to the amount of VEGF bound in the initial step. The optical density of each well was determined within 30 minutes using a microplate reader set to 450 nm and reference wavelength at 540 nm.
Background: In an ELISA, binding on a coated surface is turned into a signal by an enzyme label.

Experiment [4] relates to tyrosine phosphatase in pancreatic cancer cells (MiaPaCa2). Nature of the experiment: Tyrosine phosphatase induction, colorimetric. As to conditions: 30 minutes, final peptide concentration 10^-9 M. As to the method:
The quantitation of tyrosine phosphatase was carried out colorimetrically by using their synthetic biotin labeled tyrosine phosphorylated peptide substrates. The enzyme reaction was quenched by the addition of a specific inhibitor, and the phosphorylated and dephosphorylated substrate is immobilized by binding to the streptavidin coated microtitre plate. The fraction of the unmetabolized substrate is determined by its anti phospho tyrosine antibody directly conjugated to peroxidase.
The cells were cultured in sterile 6 well plates at a density of 0.5×10^6/ well in DMEM supplemented with 10% FCS, and allowed to adhere overnight. The medium was changed to DMEM. The cells were treated with appropriate concentrations peptide and their combinations shown in Table VI, for 30 minutes, such that in each case the final peptide concentration was 10^−9M.
The cells were lysed in appropriate lysis buffer (50 mM Tris, containing 0.2 mM PMSF, 1 ug/ml pepstatin and 0.5 ug/ml leupeptin adjusted to pH 7.4). The cell extracts were transferred to microcentrifuge tubes and centrifuged for 5 minutes at 10000×g.
The quantitation of phosphatase enzyme activity was performed with 30 ul of specific substrates and the reaction was quenched with the addition of 100 uM sodium orthvanadate. […] After 3 washings, 100 ul of the substrate POD was added to the wells, and the absorbance was read at 405 nm.

For `CSCC[C@H](NC(=O)[C@@H](N)CC(C)C)C(=O)N[C@@H](Cc1ccc(O)cc1)C(=O)N1CCC[C@H]1C(=O)N[C@H](C(=O)N[C@@H](Cc1ccc(O)cc1)C(=O)N[C@@H](CC(C)C)C(=O)N[C@@H](CCCCN)C(=O)O)[C@@H](C)O` [SEQ ID NO:1, Leu-Met-Tyr-Pro-Thr-Tyr-Leu-Lys-OH] (H-LMYPTYLK-OH; N-terminus assumed), in experiment [1], the “Camp (% of Control)” value is 30%.

Regarding `CCCC(=O)N[C@H](Cc1ccccc1)C(=O)N[C@@H](CCC(N)=O)C(=O)N[C@@H](Cc1c[nH]c2ccccc12)C(=O)N[C@@H](C)C(=O)N[C@H](C(=O)NC(C)(C)C(=O)N[C@@H](Cc1c[nH]cn1)C(=O)N[C@@H](CC(C)C)C(N)=O)C(C)C` [SEQ ID NO:2, Butanoyl-D-Phe-Gln-Trp-Ala-Val-Aib-His-Leu-NH2] (Butyryl-[dF]QWAV[Aib]HL-NH2), the “Camp (% of Control)” value in experiment [1] is recorded as 18%.

As for `CC(C)C[C@H](NC(=O)[C@@H](Cc1c[nH]c2ccccc12)NC(=O)[C@H](Cc1ccccc1)NC(=O)[C@@H](Cc1c[nH]c2ccccc12)NC(=O)[C@H](CCC(N)=O)NC(=O)[C@@H](Cc1ccccc1)NC(=O)[C@@H]1CCCN1C(=O)[C@H](CCCCN)NC(=O)[C@@H]1CCCN1C(=O)[C@H](N)CCCNC(=N)N)C(=O)NC1(C(N)=O)CCCC1` [SEQ ID NO:3, D-Arg-Pro-Lys-Pro-D-Phe-Gln-D-Trp-Phe-D-Trp-Leu-Ac5c-NH2] (H-[dR]PKP[dF]Q[dW]F[dW]L[Ac5c]-NH2; N-terminus assumed), the “% INDUCTION of Caspase-3” value in experiment [2] is recorded as 19.5%. Further, the “% INHIBITION of VEGF secretion” value in experiment [3] is given as 17.5 ± 1.9%. For the same molecule, in experiment [1], the “Camp (% of Control)” value worked out at 14%. The “% Induction of Tyrosine phosphatase” value in experiment [4] is given as 12%.

Regarding `C[C@@H](O)[C@H](NC(=O)[C@H]1NC(=O)C2(CCCC2)NC(=O)[C@H](CCCN)NC(=O)[C@@H](Cc2c[nH]c3ccccc23)NC(=O)[C@H](Cc2ccc(O)cc2)NC(=O)[C@@H](NC(=O)[C@H](N)Cc2ccccc2)CSSC1(C)C)C(N)=O` [SEQ ID NO:4, D-Phe-Cys-Tyr-D-Trp-Om-Ac5c -Pen-Thr-NH2], the “% INDUCTION of Caspase-3” value in experiment [2] was found to be 12.4%. Also, the “% INHIBITION of VEGF secretion” value in experiment [3] amounted to 12.4 ± 2.3%. Further, in experiment [1], the “Camp (% of Control)” value is on record as 15%. Moreover, the “% Induction of Tyrosine phosphatase” value in experiment [4] was 10%.
